{
  "source": "patent US11028084B2",
  "about": "“Selective inhibitors of gentotoxic steress-induced IKK/NF-κB pathways” (Max-Delbrück-Centrum für Molekulare Medizin in der …, priority 2016, dated 2021)",
  "key": {"[1]": {"test_system": "genotoxic stress-activated NF-κB signaling", "assay": "TAK1 and p65 S536 phosphorylation after γ-irradiation, WB, HepG2 cells", "assay_type": "cell-based, human", "experimental": "(§1) FIG. 6: (A) U2OS cells were pre-treated with DMSO or MW01 and irradiated. Stimulation of cell with IL-1β served as a positive control for IκBα and p65 phosphorylation. Cells were lysed at indicated time points and used for WB analyses. (B,C) Similar experimental setup as in (A). (D) Experiment as in (A-C), but with other time points analysed and performed with HepG2 cells. PARP1 and LDH serve as loading controls.\nFIG. 9: HepG2 cells were pre-incubated with DMSO, MW01 (5 μM) or the ATM inhibitor Ku55933 (10 μM) and irradiated. After 60 min cells were harvested and processed. Immunochemical staining of Western blotting membranes was done using indicated antibodies.\n(§2) FIG. 14: (A) U2OS cells were pre-treated with different concentrations of olaparib prior to co-treatment with etoposide. Whole cell lysis was performed after 90 min and cleared lysates were used for WB with indicated antibodies. (B) U2OS cells were pre-treated with DMSO, olaparib or the ATM inhibitor Ku55933 and co-treated with etoposide. Cells were harvested after 45 min and subjected to SDS-PAGE/WB. Membranes were stained with the indicated antibodies. The experiment of (B) was performed simultaneously to the experiments of (A) and (E) to control functionality of olaparib in inhibiting PAR chain formation. (C) Densitometrical analyses of (A) and two further independent experiments done as shown in (A). (D) U2OS cells were pre-treated with the substances as indicated prior to irradiation. After 90 min mRNA was isolated, transcribed into cDNA and was used for expression analyses of the indicated genes using quantitative real-time PCR (qRT-PCR). (E) HepG2 cells were pre-treated with the PARP inhibitors olaparib, 3-AB and EB-47 prior to γ-irradiation. Cells were harvested after 15 and 90 min and subjected to SDS-PAGE/WB. Membranes were stained with the indicated antibodies. Error bars equal SEM."}, "[2]": {"test_system": "genotoxic stress-initiated NF-κB signaling cascade", "assay": "Time course of IκBα, p65, IKK and TAK1 phosphorylation after γ-IR, WB, U2OS cells", "assay_type": "cell-based, human", "excerpt": "as §1"}, "[3]": {"target": "PARP1 (Homo sapiens, UniProt P09874)", "assay": "PARP1 enzymatic activity, PAR chain formation, U2OS cells", "assay_type": "cell-based", "parameters": "Experiment performed as described for (A), but using U2OS cells; endogenous in cells; host or cells: U2OS", "conditions": "γ-irradiation", "experimental": "(§3) FIG. 10: (A) MEF cells were pre-treated with the indicated substances, irradiated and cell lysates were used for poly(ADP)-ribose probing using a specific antibody. (B) Experiment performed as described for (A), but using U2OS cells.\nas §2, with “Membranes were stained with the indicated antibodies. Error bars equal SEM.” left out"}, "[4]": {"target": "nuclear IKKγ-PIASy-PARP1-ATM signalosome (Homo sapiens, UniProt P09874+Q13315+Q8N2W9+Q9Y6K9)", "sequence (Q9Y6K9 whole entry)": "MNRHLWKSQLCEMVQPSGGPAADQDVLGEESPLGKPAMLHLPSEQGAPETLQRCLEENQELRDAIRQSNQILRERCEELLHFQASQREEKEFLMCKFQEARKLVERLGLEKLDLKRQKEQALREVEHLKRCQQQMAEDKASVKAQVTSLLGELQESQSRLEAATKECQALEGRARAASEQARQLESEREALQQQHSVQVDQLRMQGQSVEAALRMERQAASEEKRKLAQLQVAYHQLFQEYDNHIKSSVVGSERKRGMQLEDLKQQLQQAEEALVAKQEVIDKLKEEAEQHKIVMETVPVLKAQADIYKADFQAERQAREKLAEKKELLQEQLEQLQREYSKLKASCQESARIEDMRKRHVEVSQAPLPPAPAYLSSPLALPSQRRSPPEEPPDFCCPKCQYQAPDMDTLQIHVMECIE", "sequence (Q8N2W9 2-510 limits assumed)": "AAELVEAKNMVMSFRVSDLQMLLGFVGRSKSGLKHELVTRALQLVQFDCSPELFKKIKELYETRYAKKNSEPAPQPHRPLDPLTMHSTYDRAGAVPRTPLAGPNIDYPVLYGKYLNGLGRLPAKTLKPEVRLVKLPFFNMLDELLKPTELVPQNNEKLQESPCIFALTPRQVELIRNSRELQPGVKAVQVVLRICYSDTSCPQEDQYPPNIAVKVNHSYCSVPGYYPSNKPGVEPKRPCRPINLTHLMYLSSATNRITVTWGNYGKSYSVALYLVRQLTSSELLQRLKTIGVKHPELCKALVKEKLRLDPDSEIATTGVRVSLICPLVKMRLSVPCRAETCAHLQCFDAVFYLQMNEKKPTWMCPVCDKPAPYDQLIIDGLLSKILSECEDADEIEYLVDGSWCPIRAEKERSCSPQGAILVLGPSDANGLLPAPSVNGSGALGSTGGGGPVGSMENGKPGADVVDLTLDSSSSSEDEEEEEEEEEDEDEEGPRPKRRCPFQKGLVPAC", "sequence (P09874 2-1014 limits assumed)": "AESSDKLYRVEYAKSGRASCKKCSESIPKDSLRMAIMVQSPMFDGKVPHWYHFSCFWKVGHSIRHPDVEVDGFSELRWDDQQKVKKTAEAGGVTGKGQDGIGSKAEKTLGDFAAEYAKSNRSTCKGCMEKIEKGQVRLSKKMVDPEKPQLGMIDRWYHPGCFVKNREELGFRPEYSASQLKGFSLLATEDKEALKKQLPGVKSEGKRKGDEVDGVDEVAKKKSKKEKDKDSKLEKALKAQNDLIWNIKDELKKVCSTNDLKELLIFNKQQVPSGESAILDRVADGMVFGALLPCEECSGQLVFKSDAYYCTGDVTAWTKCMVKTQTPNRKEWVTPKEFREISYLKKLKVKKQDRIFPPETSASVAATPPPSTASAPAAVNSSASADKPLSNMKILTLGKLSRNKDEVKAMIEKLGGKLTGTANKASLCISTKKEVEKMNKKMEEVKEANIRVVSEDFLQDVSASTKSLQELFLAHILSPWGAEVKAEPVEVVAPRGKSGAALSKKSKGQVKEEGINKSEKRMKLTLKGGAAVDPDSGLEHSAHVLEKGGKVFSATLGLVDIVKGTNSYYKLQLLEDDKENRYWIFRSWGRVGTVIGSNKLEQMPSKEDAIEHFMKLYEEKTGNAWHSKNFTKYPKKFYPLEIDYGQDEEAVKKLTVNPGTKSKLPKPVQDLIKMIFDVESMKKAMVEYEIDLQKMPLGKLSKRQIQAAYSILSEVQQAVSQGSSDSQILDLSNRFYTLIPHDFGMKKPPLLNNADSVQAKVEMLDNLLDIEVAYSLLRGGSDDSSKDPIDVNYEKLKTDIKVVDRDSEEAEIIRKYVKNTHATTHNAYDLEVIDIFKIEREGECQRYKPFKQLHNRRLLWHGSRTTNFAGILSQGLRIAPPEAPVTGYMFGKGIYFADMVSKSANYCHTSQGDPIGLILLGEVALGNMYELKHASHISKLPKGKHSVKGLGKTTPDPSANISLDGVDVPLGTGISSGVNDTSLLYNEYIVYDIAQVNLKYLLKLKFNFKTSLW", "sequence (Q13315 2-3056 limits assumed)": "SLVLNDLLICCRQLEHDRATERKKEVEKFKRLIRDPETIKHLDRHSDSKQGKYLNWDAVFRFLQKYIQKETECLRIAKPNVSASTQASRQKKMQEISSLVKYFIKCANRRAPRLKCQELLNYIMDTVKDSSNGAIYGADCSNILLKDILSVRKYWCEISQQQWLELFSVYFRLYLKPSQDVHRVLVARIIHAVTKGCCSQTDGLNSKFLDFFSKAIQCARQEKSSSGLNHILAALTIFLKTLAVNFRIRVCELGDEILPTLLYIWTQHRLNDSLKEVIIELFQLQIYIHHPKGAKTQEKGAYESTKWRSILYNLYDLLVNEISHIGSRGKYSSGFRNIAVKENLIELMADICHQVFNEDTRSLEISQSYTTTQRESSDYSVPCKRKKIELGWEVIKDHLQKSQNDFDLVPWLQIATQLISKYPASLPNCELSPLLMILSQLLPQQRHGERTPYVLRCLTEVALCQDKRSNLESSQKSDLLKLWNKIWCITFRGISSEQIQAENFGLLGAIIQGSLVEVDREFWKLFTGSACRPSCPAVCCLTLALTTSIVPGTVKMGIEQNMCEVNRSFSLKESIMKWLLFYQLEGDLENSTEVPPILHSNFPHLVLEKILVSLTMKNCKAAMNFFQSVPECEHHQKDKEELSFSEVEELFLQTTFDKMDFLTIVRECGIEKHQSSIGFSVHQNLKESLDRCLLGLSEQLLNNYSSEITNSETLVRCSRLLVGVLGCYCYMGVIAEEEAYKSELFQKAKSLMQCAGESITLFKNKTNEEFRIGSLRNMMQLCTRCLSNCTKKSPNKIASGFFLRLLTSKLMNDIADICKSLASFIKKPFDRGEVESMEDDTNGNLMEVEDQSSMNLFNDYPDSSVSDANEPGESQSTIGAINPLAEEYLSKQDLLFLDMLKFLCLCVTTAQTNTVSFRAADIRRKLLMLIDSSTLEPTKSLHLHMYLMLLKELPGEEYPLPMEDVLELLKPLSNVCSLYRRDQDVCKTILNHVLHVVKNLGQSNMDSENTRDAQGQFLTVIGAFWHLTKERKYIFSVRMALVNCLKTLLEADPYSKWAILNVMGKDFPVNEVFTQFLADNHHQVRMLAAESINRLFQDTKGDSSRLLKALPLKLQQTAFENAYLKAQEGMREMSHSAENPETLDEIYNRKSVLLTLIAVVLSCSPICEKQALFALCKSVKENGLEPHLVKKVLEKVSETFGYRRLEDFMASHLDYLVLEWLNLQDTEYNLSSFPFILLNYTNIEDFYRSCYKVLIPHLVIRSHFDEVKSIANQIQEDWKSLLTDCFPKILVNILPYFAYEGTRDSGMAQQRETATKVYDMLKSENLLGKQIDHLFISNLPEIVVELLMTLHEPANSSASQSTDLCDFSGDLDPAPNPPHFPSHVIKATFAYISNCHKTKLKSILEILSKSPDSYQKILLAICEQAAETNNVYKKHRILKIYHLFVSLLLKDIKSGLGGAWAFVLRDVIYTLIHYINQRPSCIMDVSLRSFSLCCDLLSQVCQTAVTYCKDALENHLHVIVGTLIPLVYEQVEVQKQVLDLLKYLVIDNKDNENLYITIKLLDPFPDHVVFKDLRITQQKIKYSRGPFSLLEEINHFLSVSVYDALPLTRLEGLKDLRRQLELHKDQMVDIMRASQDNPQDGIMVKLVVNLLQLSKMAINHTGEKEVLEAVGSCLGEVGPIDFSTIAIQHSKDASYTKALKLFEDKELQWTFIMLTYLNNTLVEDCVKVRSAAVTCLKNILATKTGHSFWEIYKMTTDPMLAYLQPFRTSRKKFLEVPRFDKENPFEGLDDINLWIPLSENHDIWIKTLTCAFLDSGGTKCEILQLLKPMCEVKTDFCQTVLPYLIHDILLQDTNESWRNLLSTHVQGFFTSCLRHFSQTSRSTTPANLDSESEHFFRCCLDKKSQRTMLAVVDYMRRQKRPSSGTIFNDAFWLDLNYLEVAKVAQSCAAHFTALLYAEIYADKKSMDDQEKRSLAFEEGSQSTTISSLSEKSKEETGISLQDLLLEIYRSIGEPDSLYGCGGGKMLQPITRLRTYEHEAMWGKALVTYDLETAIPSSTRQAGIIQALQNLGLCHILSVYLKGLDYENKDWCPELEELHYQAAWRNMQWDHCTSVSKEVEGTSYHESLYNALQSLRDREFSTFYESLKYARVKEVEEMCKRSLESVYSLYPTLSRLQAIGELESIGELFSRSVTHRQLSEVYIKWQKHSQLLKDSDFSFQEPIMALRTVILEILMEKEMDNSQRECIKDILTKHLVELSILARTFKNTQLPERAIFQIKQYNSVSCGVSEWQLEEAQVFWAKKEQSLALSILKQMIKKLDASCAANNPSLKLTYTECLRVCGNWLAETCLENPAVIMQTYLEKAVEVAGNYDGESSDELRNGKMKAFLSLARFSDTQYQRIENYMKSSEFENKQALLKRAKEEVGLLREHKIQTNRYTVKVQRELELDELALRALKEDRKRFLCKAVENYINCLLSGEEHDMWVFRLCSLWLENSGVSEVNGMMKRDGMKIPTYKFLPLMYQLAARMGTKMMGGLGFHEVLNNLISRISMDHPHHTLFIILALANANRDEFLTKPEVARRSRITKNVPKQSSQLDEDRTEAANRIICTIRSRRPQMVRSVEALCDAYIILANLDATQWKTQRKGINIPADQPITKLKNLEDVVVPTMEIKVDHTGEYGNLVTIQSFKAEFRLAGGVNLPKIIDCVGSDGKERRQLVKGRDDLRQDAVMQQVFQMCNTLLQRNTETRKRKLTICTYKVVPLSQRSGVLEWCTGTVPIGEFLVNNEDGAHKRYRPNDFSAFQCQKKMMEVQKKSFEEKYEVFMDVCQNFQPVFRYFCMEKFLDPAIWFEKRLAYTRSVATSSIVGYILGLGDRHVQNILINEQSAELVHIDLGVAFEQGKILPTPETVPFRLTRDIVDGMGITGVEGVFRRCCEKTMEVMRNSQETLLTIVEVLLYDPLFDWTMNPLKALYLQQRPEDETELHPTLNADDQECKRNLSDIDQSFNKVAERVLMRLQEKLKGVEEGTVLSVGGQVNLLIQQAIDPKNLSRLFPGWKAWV", "assay": "Nuclear PARP1-signalosome formation, IKKγ co-immunoprecipitation, HEK293 cells", "assay_type": "cell-based", "parameters": "endogenous in cells; host or cells: HEK293", "experimental": "FIG. 8: (A) HepG2 cells were pre-treated with DMSO or MW01 and irradiated. Nuclear cell extracts (NE) were used for PIASy immunoprecipitation (IP). Western blot membranes were incubated with indicated antibodies. (B) Experiment as shown in (A), but with IKKγ IP. (C) Experiment as shown in (B), but done in HEK293 cells. (D) Experiment done as shown in […], but repeated in MEF cells.\nFollowing cell lysis the protein concentration of samples was determined. For input controls, 40 μg lysate were mixed with 6×SDS-buffer and denatured by heating to 95° C. for 4 min. Approximately 1500 μg protein lysate was used for pulldown and samples volumes were equalled with lysis buffer. Lysates were precleared with 30 μl sepharose A or sepharose G beads (depending on the antibody type used for pulldown) for 30 min, and centrifuged for 5 min at 1,500×g. The supernatant was transferred to a new reaction tube. Primary antibody (2-2.5 μg) was added to the cleared lysate for immunoprecipitation overnight while rotating at 4° C. The next day 30 μl sepharose beads per sample were used for immobilisation of antibodies. Following 4 washes with IP wash buffer precipitated proteins were eluted by mixing with 3×SDS-buffer and heating to 95° C. for 4 min."}, "[5]": {"target": "T1, PARP1 (Mus musculus, UniProt P11103)", "T1 construct": "endogenous in cells; host or cells: MEF (mouse embryonic fibroblasts)", "assay": "PARP1 enzymatic activity, PAR chain formation after γ-irradiation, MEF cells", "assay_type": "cell-based", "excerpt": "as §3"}, "[6]": {"test_system": "IKKγ phosphorylation at S85", "assay": "IKKγ S85 phosphorylation after irradiation, WB, MEF cells", "assay_type": "cell-based, mouse", "conditions": "MEF (murine)", "experimental": "FIG. 11: (A) HEK293 cells were pre-incubated with DMSO, MW01 or ATM inhibitor KU55933 and irradiated. Lysates were subjected to SDS-PAGE/WB. The specific IKKγ S85 band (lower band) was identified by induction following irradiation and by sensitivity to ATMi and λ-phosphatase (λ-PP) treatment. The asterisk indicates a non-specific band that was neither inducible nor ATMi sensitive. (B) Experiment was done as shown in (A) using MEF cells. (C) HEK293 cells were pre-treated with DMSO or MW01, irradiated and lysed. Lysates were used to immunoprecipitate IKKγ using an IKKγ antibody."}},
  "data": [
    {"smiles": "COc1ccc2c(c1OC)c(=O)n1c3ccc(O)cc3c3ccnc2c31", "note": "[MW01, 12-hydroxy-6,7-dimethoxy-8H-benzo[c]indolo[3,2,1-ij][1,5]naphthyridin-8-one]", "values": [
      {"measurement": "p65 S536 phosphorylation level", "setting": "[1]; HepG2, 5 μM, irradiated, 60 min", "result": "drastically reduced"},
      {"measurement": "TAK1 and p65 phosphorylation", "setting": "[1]; HepG2, γ-IR", "result": "abolished"},
      {"measurement": "TAK1 phosphorylation", "setting": "[2]; 45 and 60 min following irradiation", "result": "strongly inhibited"},
      {"measurement": "IκBα phosphorylation", "setting": "[2]; 45 min and 60 min after γ-IR", "result": "complete inhibition"},
      {"measurement": "p65 S536 phosphorylation", "setting": "[2]; 45 min and 60 min after γ-IR", "result": "inhibited"},
      {"measurement": "IKK phosphorylation", "setting": "[2]; 90 min after irradiation", "result": "abolished"},
      {"measurement": "PAR chain formation / PARP1 enzymatic activity", "setting": "[3]", "result": "did not interfere with activation of PARP1 enzymatic activity"},
      {"measurement": "Co-IP of PARP-1 with IKKγ", "setting": "[4]; HEK293, data not shown", "result": "abrogated Co-IP of PARP-1 with IKKγ"},
      {"measurement": "IKKγ-PIASy-interaction (PIASy co-immunoprecipitation with IKKγ)", "setting": "[4]; HEK293, γ-irradiation", "result": "the interaction was abolished"},
      {"measurement": "PAR chain formation / PARP1 enzymatic activity", "setting": "[5]", "result": "did not interfere with activation of PARP1 enzymatic activity"},
      {"measurement": "phosphorylation of IKKγ at S85", "setting": "[6]", "result": "abolished"}
    ]}
  ]
}
